Assay results as given in the supplement of paper PMC10307832.

Assays:
Test in all cases: relative viability (nuclei count vs DMSO), 5 days (fraction); higher = more cells survive
[1] = compound: Cc1ccc(NC(=O)c2ccc(CN3CCN(C)CC3)cc2)cc1Nc1nccc(-c2cccnc2)n1 [Imatinib] + COc1cccc2cc(-c3nc([C@H]4CC[C@H](C(=O)O)CC4)n4ncnc(N)c34)[nH]c12 [OSI-027] (partner 0.5 µM)
How it was run: (§1)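 Lung cancer cell lines in 1536-well plates got either a single drug or a fixed anchor-drug dose together with five library-drug doses (not always all listed) in √10 steps, by pin tool, on the day after seeding. Nuclei were counted after 5 days, and relative viability is the treated-to-vehicle ratio of nuclei counts. Values are medians of duplicate plates.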

[2] = compound: Cc1ccc(NC(=O)c2ccc(CN3CCN(C)CC3)cc2)cc1Nc1nccc(-c2cccnc2)n1 [Imatinib] + CC(=O)c1c(C)c2cnc(Nc3ccc(N4CCNCC4)cn3)nc2n(C2CCCC2)c1=O [Palbociclib] (partner 0.5 µM)
How it was run: as §1

[3] = compound: Cc1ccc(NC(=O)c2ccc(CN3CCN(C)CC3)cc2)cc1Nc1nccc(-c2cccnc2)n1 [Imatinib] + CCNC(=O)c1noc(-c2cc(C(C)C)c(O)cc2O)c1-c1ccc(CN2CCOCC2)cc1 [Luminespib] (partner 0.01 µM)
How it was run: as §1

[4] = compound: Cc1ccc(NC(=O)c2ccc(CN3CCN(C)CC3)cc2)cc1Nc1nccc(-c2cccnc2)n1 [Imatinib]
How it was run: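 Viability here means nuclei in treated wells divided by nuclei in vehicle wells, reported as the median across plates. Only plates with control CV below 25% and at least one doubling passed. Lung cancer cell lines in 1536-well plates were exposed to five √10-spaced library-drug doses for 5 days and counted from 4× Hoechst images in MetaXpress.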

| Cell Line | relative viability ([1]; first compound 0.02 µM) | relative viability ([1]; first compound 0.06325 µM) | relative viability ([1]; first compound 0.2 µM) | relative viability ([1]; first compound 0.6325 µM) | relative viability ([1]; first compound 2 µM) | relative viability ([2]; first compound 0.02 µM) | relative viability ([2]; first compound 0.06325 µM) | relative viability ([2]; first compound 0.2 µM) | relative viability ([2]; first compound 0.6325 µM) | relative viability ([2]; first compound 2 µM) | relative viability ([3]; first compound 0.02 µM) | relative viability ([3]; first compound 0.06325 µM) | relative viability ([3]; first compound 0.2 µM) | relative viability ([3]; first compound 0.6325 µM) | relative viability ([3]; first compound 2 µM) | relative viability ([4]; 0.02 µM) | relative viability ([4]; 0.06325 µM) | relative viability ([4]; 0.2 µM) | relative viability ([4]; 0.6325 µM) | relative viability ([4]; 2 µM) |
| --- | --- | --- | --- | --- | --- | --- | --- | --- | --- | --- | --- | --- | --- | --- | --- | --- | --- | --- | --- | --- |
| SW 900 | 0.564 | 0.397 | 0.548 | 0.583 | 0.496 | 0.549 | 0.644 | 0.617 | 0.566 | 0.588 | 0.201 | 0.146 | 0.168 | 0.175 | 0.161 | 0.806 | 0.712 | 0.941 | 0.896 | 0.855 |
| SW 1573 | 0.708 | 0.24 | 0.685 | 0.573 | 0.548 | 0.404 | 0.435 | 0.41 | 0.265 | 0.405 | 0.23 | 0.348 | 0.293 | 0.26 | 0.233 | 1.16 | 0.79 | 1.13 | 1.01 | 1.02 |
| UMC-11 | 0.514 | 0.542 | 0.64 | 0.499 | 0.456 | 0.333 | 0.337 | 0.333 | 0.33 | 0.269 | 1.19 | 1.22 | 1.04 | – | 0.96 | 1.03 | 0.987 | 1.03 | 1.1 | 0.941 |
